Results: patent publication US4992455A, “Thiazolidin-4-one derivatives useful for treating diseases caused by platelet activating factor” (Sumitomo Pharmaceuticals Company, Limited, priority 1987, dated 1991)
Converted amounts (≈) assume the structure as drawn. Structures can show the parent of a compound that is named as a salt.

Legend:
[1] = system: PAF-induced human platelet aggregation; assay: Inhibition of PAF-induced human platelet aggregation (in vitro, human PRP); type: cell-based
Procedure: (§1) The inhibition of PAF-induced platelet aggregation was examined by using a platelet-rich plasma (PRP) of rabbit according to the method of Mustard et al. [J.F. Mustard et al., J. Lab. Clin. Med., 64, 548 (1964)], which is an improvement of the method of Born [G.V.R. Born, J. Physiol., London, 162, 67 (1962)]. That is, 80-100 ml of blood per animal was collected from carotid arteries of male rabbits of the Japanese white breed without anesthesia into a polyethylene vessel containing 1/10 the volume of a 3.8% sodium citrate solution. A portion (about 3 ml) of the collected blood was centrifuged at a high speed (11,000 rpm) for 60 seconds, giving a platelet-poor plasma (PPP) as supernatant. The remainder of the blood was centrifuged at a low speed (1000 rpm) for 10 minutes, giving a platelet-rich plasma (PRP) as supernatant.
(§2) The degree of platelet aggregation was determined by nephelometry with an aggregometer (Hematracer, Niko Bioscience Co.) while stirring the PRP at 1000 rpm at 37° C. The platelet aggregation activity was expressed in terms of the light transmittance (%), the value of PRP being taken as 0% and the value of PPP as 100%. A portion (0.2 ml) of the PRP was placed in a glass cuvette containing a silicone-treated stirring iron rod, and 2 µl of dimethylsulfoxide was added. AFter 2 minutes, PAF dissolved in 0.25% BSA physiological saline was added to give a final PAF concentration of 0.005 μ1/ml, and the maximum aggregation was determined. To examine the inhibitory activity of test compounds on the platelet aggregation caused by PAF, 2 µl of a dimethylsulfoxide solution of each test compound was added in place of the dimethylsulfoxide. The percentage inhibition by the test compound of PAF-induced platelet aggregation was calculated according to the following equation and the value of IC50 was determined. [formula]
The inhibition of PAF-induced platelet aggregation was tested by using human PRP. The test was conducted according to the procedure of the above case of rabbit, thereby evaluating the percentages inhibition and IC50 values of test compounds at final PAF concentrations of 0.3 μM and 1 μM.

[2] = system: fatal effect of PAF on mice; assay: Test for inhibition of fatal effect of PAF on mice; type: in vivo, Male ICR mice; conditions: 10 mg/kg iv, PAF 10 μg/kg iv, 2 hours after PAF
Procedure: Male ICR mice (perchased from Charles River Co.) aged 4 weeks were anesthetized by injecting subcutaneously 100 mg/kg of Isomital® soda (sodium amobarbital supplied by Nippon Shinyaku Co., Ltd.). After 18 minutes, the mice were injected with a test compound or a solvent through tail veins. The test compound was dissolved in a 0.2 M phosphate buffer solution to a concentration of 1 mg/ml and 10 ml/kg of this solution was injected (dose of test compound 10 mg/kg). Two minutes after this administration, the mice were injected with 10 μg/kg of PAF through tail veins. The PAF was dissolved in physiological saline containing 0.25% of bovine serum albumin to a concentration of 2 μg/ml, and the mice were injected with 5 ml/kg of this solution.
After PAF administration, the mice were observed and the survival rate of mice 2 hours later was determined.

[3] = system: PAF-induced rabbit platelet aggregation; assay: Inhibition of PAF-induced rabbit platelet aggregation (in vitro, platelet-rich plasma); type: cell-based; conditions: Oryctolagus cuniculus, rabbit PRP, 37° C., final PAF concentration 0.005 μ1/ml [sic]
Procedure: as §1, §2

[4] = system: PAF-induced blood concentration; assay: Test in vivo for inhibition of PAF-induced blood concentration; conditions: guinea pigs, PAF iv 2 min later
Procedure: Guinea pigs under anesthesia with urethane (6.25 mg/kg injected into the abdominal cavities) were cannulated through carotid arteries and jugular veins. The carotid artery cannulae were used for blood sampling and the jugular vein cannulae for the intravenous injection of test compound and PAF.
Compound No. 27 was suspended in 10% Nikkol® liquid to a concentration of 3 mg/ml, and 1 ml/kg of the resulting suspension was administered through the jugular vein cannulae. Two minutes later, 1 ml/kg of a 0.1 μg/m1 PAF solution was administered through the jugular vein cannulae. Then, blood was sampled at times. The blood samples were each centrifuged at 11,000 rpm for 5 minutes and the hematocrit values were measured to determine the maximum increase (blood concentration) in hematocrit value.
For a control, 0.5% methyl cellulose solution was administered in place of compound No. 27.
The percentage inhibition of the PAF-induced blood concentration by compound No. 27 was calculated according to the following equation: [formula] The found percentage inhibition was 87%.

| Structure (SMILES) | IC50 [3] [µg/mL] | also measured |
| --- | --- | --- |
| C#CCN1C(=O)[C@@H](C)S[C@@H]1c1cccnc1 (relative stereo) [compound 33] |  | IC50 ([1]; PAF concentration 0.3 μM): 5.5 µg/mL (≈ 23.7 µM) |
| CCCCCC[C@H]1S[C@H](c2cccnc2)N(CCN(C)C)C1=O (relative stereo) [compound 174] |  | Survival rate [2]: 80% |
| C[C@H]1S[C@@H](c2cccnc2)N(C)C1=O (relative stereo) [compound 182, 3,5-dimethyl-2-(3-pyridyl)thiazolidin-4-one hydrochloride] |  | Survival rate [2]: 100% |
| CCCCCCC[C@H]1S[C@H](c2cccnc2)N(CCN(C)C)C1=O (relative stereo) [compound 175] |  | Survival rate [2]: 60% |
| CCCCCCCCC[C@H]1S[C@@H](c2cccnc2)N(CCCN(C)C)C1=O (relative stereo) [compound 108] | 0.7 (≈ 1.79 µM) | IC50 ([1]; PAF concentration 0.3 μM): 1.8 µg/mL (≈ 4.6 µM); IC50 ([1]; PAF concentration 1 μM): 6 µg/mL (≈ 15.3 µM) |
| CCCCCCCCC[C@H]1S[C@@H](c2cccnc2)N(CCN(C)C)C1=O (relative stereo) [compound 28, 3-(2-Dimethylaminoethyl)-5-(n-nonyl)-2-(3-pyridyl)thiazolidin-4-one] | 0.2 (≈ 0.53 µM) | IC50 ([1]; PAF concentration 0.3 μM): 1.2 µg/mL (≈ 3.18 µM); IC50 ([1]; PAF concentration 1 μM): 2.5 µg/mL (≈ 6.62 µM); Percentage inhibition of PAF-induced blood concentration (maximum increase in hematocrit value) ([4]; dose 30 mg/kg iv): 92% |
| CC(=O)SCCN1C(=O)[C@@H](C)S[C@H]1c1cccnc1 (relative stereo) [Compound No. 18, 3-(2-Acetylthioethyl)-5-methyl-2(3-pyridyl)thiazolidin-4-one] | 3 (≈ 10.1 µM) |  |
| C[C@H]1S[C@@H](c2cccnc2)N(C)C1=O (relative stereo) [Compound No. 2, 3,5-Dimethyl-2-(3-pyridyl)thiazolidin-4-one] | 4 (≈ 19.2 µM) | IC50 ([1]; PAF concentration 0.3 μM): 5.5 µg/mL (≈ 26.4 µM); Percentage inhibition of PAF-induced blood concentration (maximum increase in hematocrit value) ([4]; dose 3 mg/kg iv): 53% |
| CCCCCCCCC[C@H]1S[C@H](c2cccnc2)N(CCN(C)C)C1=O (relative stereo) [Compound No. 27, 3-(2-dimethylaminoethyl)-5-(n-nonyl)-2-(3-pyridyl)thiazolidin-4-one] | 0.02 (≈ 0.053 µM) | IC50 ([1]; PAF concentration 0.3 μM): 0.2 µg/mL (≈ 0.53 µM); IC50 ([1]; PAF concentration 1 μM): 0.4 µg/mL (≈ 1.06 µM); Percentage inhibition of PAF-induced blood concentration (maximum increase in hematocrit value) ([4]; dose 3 mg/kg iv): 87% |
| CN(C)CCN1C(=O)[C@@H](CCCO[Si](C)(C)C(C)(C)C)S[C@@H]1c1cccnc1 (relative stereo) [compound 169] | 0.026 (≈ 0.0614 µM) |  |
| CCCCCCC1SC(c2cccnc2)N(C)C1=O (stereo not drawn) [compound 47] | 1.4 (≈ 5.03 µM) |  |
| C[C@H]1S[C@H](c2cccnc2)N(C)C1=O (relative stereo) [compound 3, 3,5-Dimethyl-2-(3-pyridyl)thiazolidin-4-one] | 3.5 (≈ 16.8 µM) | IC50 ([1]; PAF concentration 0.3 μM): 6 µg/mL (≈ 28.8 µM); Percentage inhibition of PAF-induced blood concentration (maximum increase in hematocrit value) ([4]; dose 30 mg/kg iv): 58% |
| CCCCCC[C@H]1S[C@H](c2cccnc2)N(CCN(C)C)C1=O (relative stereo) [compound 73] | 0.07 (≈ 0.209 µM) |  |
| CCOC(=O)CN1C(=O)[C@@H](C)S[C@H]1c1cccnc1 (relative stereo) [Compound No. 9, 3-ethoxycarbonylmethyl-5-methyl-2(3-pyridyl)thiazolidin-4-one] | 1.6 (≈ 5.71 µM) |  |
| CN(C)CCN1C(=O)C(C)(C)SC1c1cccnc1 (stereo not drawn) [compound 25, 5,5-dimethyl-3-(2-dimethylaminoethyl)2-(3-pyridyl)thiazolidin-4-one] | 10 (≈ 35.8 µM) |  |
| CN(C)CCN1C(=O)C(CCOCCO[Si](C)(C)C(C)(C)C)SC1c1cccnc1 (stereo not drawn) [compound 165] | 0.3 (≈ 0.661 µM) |  |

Second part, led by results:

| IC50 [3] [µg/mL] | Structure (SMILES) | also measured |
| --- | --- | --- |
| 0.19 (≈ 0.563 µM) | CCOCCCC1SC(c2cccnc2)N(CCN(C)C)C1=O (stereo not drawn) [compound 137] |  |
| 0.1 (≈ 0.247 µM) | CCCCCCCCCCC[C@H]1S[C@H](c2cccnc2)N(CCN(C)C)C1=O (relative stereo) [compound 81] |  |
| 1.7 (≈ 6.41 µM) | C[C@H]1S[C@H](c2cccnc2)N(CCN(C)C)C1=O (relative stereo) [compound 127] |  |
| 0.45 (≈ 1.53 µM) | CCC[C@H]1S[C@H](c2cccnc2)N(CCN(C)C)C1=O (relative stereo) [compound 67] |  |
| 0.2 (≈ 0.572 µM) | CCCCCCC[C@H]1S[C@@H](c2cccnc2)N(CCN(C)C)C1=O (relative stereo) [compound 76] |  |
| 0.35 (≈ 0.894 µM) | CCCCCCCCCC[C@H]1S[C@@H](c2cccnc2)N(CCN(C)C)C1=O (relative stereo) [compound 80] |  |
| 0.14 (≈ 0.385 µM) | CCCCCCCC[C@H]1S[C@@H](c2cccnc2)N(CCN(C)C)C1=O (relative stereo) [compound 78] |  |
| 0.18 (≈ 0.512 µM) | CCCCOCC[C@H]1S[C@H](c2cccnc2)N(CCN(C)C)C1=O (relative stereo) [compound 133] |  |
